Assay results published in ChEMBL document CHEMBL2016464, “Identification of Inhibitors of NOD1-Induced Nuclear Factor-κB Activation” (ACS Med Chem Lett, 2011).
Calls of active or inactive are those of the source. No cut-off for these calls is given here.

What was measured:
[1] = Metabolic stability in mouse plasma assessed as compound remaining at 1 uM after 180 mins; type: ADME, cell-free; conditions: read-out: Stability
[2] = target: Histamine H1 receptor (Homo sapiens) (UniProt P35367); experiment: Inhibition of H1 histamine receptor at 10 uM
Histamine H1 receptor (Homo sapiens), sequence (P35367 whole entry): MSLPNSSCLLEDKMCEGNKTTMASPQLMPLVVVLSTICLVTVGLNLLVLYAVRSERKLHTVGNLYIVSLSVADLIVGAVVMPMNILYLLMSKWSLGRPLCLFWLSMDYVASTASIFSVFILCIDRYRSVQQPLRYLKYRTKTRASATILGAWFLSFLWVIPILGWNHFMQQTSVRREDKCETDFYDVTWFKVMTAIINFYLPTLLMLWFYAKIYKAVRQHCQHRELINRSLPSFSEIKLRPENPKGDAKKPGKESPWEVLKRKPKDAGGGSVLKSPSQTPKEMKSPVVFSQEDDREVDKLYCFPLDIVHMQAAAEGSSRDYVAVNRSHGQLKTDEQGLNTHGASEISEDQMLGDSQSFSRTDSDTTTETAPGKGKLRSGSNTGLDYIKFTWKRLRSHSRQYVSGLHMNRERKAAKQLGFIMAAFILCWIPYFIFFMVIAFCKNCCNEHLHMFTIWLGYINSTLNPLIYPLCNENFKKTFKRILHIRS

[3] = Plasma protein binding in human at 1 uM after 4 hrs; type: ADME, cell-free; conditions: read-out: PPB (converted)
MCF7 = experiment: Inhibition of TNFalpha-induced IL8 secretion in human MCF7 cells at 0.25 to 5 uM by ELISA; type: functional, cell-based
[4] = Metabolic stability in human liver microsomes assessed as compound remaining at 1 uM preincubated for 10 mins measured after 60 mins; type: ADME, Microsome; conditions: read-out: Stability
[5] = Plasma concentration in mouse at 30 mg/kg, ip at 20 mins
HEK-293T [6] = experiment: Inhibition of doxorubicin-induced NFkappaB activation at 0.25 to 25 uM in HEK293T cells by luciferase reporter gene assay; type: cell-based; conditions: Homo sapiens
[7] = Metabolic stability in mouse liver microsomes assessed as compound remaining at 1 uM preincubated for 10 mins measured after 60 mins; type: ADME, Microsome; conditions: read-out: Stability
[8] = Plasma concentration in mouse at 15 mg/kg, ip at 120 mins
[9] = Metabolic stability in human plasma assessed as compound remaining at 1 uM after 180 mins; type: ADME, cell-free; conditions: read-out: Stability
[10] = target: Receptor-type tyrosine-protein kinase FLT3 (Homo sapiens) (UniProt P36888); experiment: Inhibition of CFLT3 at 10 uM relative to control
Receptor-type tyrosine-protein kinase FLT3 (Homo sapiens), sequence (P36888 whole entry): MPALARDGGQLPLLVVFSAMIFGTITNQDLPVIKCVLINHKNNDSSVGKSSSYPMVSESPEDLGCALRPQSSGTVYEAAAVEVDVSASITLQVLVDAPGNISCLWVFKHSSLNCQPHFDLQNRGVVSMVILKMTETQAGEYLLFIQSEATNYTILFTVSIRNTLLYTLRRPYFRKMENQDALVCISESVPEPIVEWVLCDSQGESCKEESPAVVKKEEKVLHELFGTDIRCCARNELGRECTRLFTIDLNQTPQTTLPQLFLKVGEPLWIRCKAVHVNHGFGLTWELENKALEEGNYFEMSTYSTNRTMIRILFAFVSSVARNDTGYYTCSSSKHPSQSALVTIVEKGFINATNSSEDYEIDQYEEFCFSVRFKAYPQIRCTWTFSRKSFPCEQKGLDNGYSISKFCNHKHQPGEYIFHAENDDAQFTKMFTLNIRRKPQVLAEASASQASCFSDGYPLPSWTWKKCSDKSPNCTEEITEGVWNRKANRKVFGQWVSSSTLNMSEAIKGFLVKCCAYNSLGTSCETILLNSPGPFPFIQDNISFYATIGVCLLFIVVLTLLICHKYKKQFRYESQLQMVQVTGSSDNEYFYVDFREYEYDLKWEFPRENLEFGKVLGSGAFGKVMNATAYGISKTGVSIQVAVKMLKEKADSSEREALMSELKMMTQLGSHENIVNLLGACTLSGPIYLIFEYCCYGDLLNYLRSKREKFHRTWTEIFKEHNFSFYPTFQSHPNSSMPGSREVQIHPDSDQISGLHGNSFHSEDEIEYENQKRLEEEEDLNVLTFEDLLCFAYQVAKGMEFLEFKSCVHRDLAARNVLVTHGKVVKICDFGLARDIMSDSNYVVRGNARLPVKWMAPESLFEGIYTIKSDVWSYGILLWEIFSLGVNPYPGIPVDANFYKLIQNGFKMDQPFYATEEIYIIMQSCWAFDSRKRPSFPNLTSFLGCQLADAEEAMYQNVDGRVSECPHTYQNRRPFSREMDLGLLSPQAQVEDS

cells = conditions: Homo sapiens, HEK-293T, 14 h
Description: Inhibition of TNFalpha-induced NFkappaB activation in HEK293T cells after 14 hrs by luciferase reporter gene assay

[11] = Plasma concentration in mouse at 15 mg/kg, ip at 20 mins
[12] = Cytotoxicity against human Fa2N-4 cells after 24 hrs by ATP-lite assay; type: cell-based; conditions: read-out: LD50
[13] = Plasma protein binding in mouse at 10 uM after 4 hrs; type: ADME, cell-free; conditions: read-out: PPB (converted)
[14] = target: Serine/threonine-protein kinase RIO2 (Homo sapiens) (UniProt Q9BVS4); experiment: Inhibition of RIOK2 at 10 uM relative to control
Serine/threonine-protein kinase RIO2 (Homo sapiens), sequence (Q9BVS4 whole entry, looked up): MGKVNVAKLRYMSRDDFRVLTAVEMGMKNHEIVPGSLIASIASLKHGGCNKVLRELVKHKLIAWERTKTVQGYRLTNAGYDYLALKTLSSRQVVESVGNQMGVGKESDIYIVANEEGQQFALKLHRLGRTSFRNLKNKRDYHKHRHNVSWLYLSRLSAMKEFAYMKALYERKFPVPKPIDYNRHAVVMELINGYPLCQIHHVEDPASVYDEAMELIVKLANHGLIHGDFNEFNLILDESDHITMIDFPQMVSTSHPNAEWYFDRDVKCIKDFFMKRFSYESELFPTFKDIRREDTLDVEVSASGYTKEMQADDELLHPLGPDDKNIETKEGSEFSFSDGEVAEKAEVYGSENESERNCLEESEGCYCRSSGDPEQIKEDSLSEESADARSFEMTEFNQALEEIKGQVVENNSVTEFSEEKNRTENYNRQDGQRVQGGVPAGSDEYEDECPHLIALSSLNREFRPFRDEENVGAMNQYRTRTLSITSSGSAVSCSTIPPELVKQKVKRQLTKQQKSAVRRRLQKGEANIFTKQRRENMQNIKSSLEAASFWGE

[15] = target: Aurora kinase B (Homo sapiens) (UniProt Q96GD4); experiment: Inhibition of AURKB at 10 uM relative to control
Aurora kinase B (Homo sapiens), sequence (Q96GD4 whole entry): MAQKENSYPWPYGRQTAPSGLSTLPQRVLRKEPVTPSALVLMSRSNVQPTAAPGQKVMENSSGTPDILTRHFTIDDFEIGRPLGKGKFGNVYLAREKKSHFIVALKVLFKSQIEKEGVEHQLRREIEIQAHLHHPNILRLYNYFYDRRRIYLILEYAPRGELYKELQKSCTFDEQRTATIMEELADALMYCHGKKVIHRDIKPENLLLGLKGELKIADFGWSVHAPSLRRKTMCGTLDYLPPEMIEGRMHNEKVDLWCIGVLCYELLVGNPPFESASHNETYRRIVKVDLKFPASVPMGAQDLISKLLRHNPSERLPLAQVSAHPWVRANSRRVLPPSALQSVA

[16] = Cytotoxicity against human NCI60 cells; type: cell-based
[17] = Plasma protein binding in human at 10 uM after 4 hrs; type: ADME, cell-free; conditions: read-out: PPB (converted)
[18] = Plasma concentration in mouse at 30 mg/kg, ip at 120 mins
[19] = target: T1, Aurora kinase C (Homo sapiens) (UniProt Q9UQB9); experiment: Inhibition of AURKC at 10 uM relative to control
T1 sequence (whole entry): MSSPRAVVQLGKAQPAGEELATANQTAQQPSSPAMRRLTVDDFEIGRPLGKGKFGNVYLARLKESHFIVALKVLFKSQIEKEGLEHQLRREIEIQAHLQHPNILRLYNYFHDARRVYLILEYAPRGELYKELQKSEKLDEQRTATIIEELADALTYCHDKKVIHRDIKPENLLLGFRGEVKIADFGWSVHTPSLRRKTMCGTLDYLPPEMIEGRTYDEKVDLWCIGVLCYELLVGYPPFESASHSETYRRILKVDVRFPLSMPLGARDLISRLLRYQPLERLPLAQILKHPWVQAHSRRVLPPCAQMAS

[20] = Plasma protein binding in mouse at 1 uM after 4 hrs; type: ADME, cell-free; conditions: read-out: PPB (converted)
[21] = target: 5-hydroxytryptamine receptor 6 (Homo sapiens) (UniProt P50406); experiment: Inhibition of 5HT6 receptor at 10 uM
5-hydroxytryptamine receptor 6 (Homo sapiens), sequence (P50406 whole entry): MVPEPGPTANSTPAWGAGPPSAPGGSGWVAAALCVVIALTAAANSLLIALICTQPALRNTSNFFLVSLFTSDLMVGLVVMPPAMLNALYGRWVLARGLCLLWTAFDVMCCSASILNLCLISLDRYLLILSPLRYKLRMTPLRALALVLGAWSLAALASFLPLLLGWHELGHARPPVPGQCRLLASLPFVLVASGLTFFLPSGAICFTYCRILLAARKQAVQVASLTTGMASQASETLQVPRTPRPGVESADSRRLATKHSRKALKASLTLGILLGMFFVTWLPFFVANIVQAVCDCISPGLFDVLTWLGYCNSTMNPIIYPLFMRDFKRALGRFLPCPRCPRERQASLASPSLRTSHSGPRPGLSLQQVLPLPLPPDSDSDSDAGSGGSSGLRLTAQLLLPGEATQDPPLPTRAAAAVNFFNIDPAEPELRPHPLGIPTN

HEK-293T [22] = experiment: Inhibition of PMA/ionomycin-induced NFkappaB activation at 0.25 to 25 uM in HEK293T cells by luciferase reporter gene assay; type: cell-based; conditions: Homo sapiens
[23] = target: Nucleotide-binding oligomerization domain-containing protein 2 (Homo sapiens, UniProt Q9HC29); experiment: Inhibition of NOD-2 in human MCF7 cells assessed as inhibition of MDP-induced IL8 secretion at 0.25 to 5 uM by ELISA; type: cell-based
Nucleotide-binding oligomerization domain-containing protein 2, sequence (Q9HC29 whole entry, the tested form may be a part): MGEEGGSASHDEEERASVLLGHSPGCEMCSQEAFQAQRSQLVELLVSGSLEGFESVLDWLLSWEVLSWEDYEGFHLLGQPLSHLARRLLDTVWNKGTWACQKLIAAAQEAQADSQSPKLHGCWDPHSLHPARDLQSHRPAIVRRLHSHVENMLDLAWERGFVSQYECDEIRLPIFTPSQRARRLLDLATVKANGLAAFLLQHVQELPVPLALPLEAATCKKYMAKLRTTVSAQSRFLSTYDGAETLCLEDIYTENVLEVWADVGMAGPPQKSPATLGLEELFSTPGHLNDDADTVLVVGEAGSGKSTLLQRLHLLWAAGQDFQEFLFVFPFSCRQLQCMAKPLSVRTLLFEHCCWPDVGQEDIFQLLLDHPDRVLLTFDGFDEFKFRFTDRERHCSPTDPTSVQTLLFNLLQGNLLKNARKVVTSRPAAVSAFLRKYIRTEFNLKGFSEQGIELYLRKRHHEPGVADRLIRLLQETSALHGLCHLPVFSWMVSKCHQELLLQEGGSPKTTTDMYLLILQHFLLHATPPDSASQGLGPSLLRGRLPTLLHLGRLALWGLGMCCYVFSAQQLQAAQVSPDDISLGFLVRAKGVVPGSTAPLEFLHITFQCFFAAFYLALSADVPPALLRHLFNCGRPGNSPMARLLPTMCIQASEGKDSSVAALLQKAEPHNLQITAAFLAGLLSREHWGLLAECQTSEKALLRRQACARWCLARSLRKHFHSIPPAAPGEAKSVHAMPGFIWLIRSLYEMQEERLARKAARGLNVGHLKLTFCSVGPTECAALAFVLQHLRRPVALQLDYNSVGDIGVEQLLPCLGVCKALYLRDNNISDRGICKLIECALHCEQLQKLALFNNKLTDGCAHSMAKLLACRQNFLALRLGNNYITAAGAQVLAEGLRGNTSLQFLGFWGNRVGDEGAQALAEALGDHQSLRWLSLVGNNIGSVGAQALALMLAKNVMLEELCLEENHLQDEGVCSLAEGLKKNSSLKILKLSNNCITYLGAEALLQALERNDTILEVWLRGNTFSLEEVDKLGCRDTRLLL

[24] = target: 5-hydroxytryptamine receptor 2B (Homo sapiens) (UniProt P41595); experiment: Inhibition of 5HT2B receptor at 10 uM
5-hydroxytryptamine receptor 2B (Homo sapiens), sequence (P41595 whole entry): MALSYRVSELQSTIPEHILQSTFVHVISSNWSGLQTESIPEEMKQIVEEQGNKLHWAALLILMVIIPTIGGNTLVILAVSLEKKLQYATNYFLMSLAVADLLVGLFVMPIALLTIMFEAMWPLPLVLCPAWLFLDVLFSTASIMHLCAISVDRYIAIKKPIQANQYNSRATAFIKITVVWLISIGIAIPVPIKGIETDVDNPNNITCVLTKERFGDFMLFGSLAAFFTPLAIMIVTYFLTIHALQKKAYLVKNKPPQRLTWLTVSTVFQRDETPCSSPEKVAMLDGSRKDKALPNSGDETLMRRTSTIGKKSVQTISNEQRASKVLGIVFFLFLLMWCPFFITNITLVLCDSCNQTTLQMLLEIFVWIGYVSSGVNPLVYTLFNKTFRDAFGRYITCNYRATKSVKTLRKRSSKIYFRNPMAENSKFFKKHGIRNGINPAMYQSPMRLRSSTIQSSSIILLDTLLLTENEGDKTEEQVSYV

[25] = target: T2, Aurora kinase A (Homo sapiens) (UniProt O14965); experiment: Inhibition of AURKA at 10 uM relative to control
T2 sequence (whole entry): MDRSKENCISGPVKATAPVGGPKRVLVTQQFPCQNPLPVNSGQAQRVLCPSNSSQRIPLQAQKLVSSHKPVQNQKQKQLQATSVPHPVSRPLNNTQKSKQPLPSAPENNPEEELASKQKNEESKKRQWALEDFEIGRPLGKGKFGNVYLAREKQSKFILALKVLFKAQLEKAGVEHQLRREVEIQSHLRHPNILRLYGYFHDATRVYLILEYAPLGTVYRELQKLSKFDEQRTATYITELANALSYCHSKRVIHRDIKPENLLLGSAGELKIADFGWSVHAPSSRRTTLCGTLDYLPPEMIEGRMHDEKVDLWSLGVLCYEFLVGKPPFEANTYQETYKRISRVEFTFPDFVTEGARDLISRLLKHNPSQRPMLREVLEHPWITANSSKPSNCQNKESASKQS

[26] = target: T3, Nucleotide-binding oligomerization domain-containing protein 1 (Homo sapiens) (UniProt Q9Y239); conditions: MCF7, 0.25 to 5 uM
T3 sequence (whole entry): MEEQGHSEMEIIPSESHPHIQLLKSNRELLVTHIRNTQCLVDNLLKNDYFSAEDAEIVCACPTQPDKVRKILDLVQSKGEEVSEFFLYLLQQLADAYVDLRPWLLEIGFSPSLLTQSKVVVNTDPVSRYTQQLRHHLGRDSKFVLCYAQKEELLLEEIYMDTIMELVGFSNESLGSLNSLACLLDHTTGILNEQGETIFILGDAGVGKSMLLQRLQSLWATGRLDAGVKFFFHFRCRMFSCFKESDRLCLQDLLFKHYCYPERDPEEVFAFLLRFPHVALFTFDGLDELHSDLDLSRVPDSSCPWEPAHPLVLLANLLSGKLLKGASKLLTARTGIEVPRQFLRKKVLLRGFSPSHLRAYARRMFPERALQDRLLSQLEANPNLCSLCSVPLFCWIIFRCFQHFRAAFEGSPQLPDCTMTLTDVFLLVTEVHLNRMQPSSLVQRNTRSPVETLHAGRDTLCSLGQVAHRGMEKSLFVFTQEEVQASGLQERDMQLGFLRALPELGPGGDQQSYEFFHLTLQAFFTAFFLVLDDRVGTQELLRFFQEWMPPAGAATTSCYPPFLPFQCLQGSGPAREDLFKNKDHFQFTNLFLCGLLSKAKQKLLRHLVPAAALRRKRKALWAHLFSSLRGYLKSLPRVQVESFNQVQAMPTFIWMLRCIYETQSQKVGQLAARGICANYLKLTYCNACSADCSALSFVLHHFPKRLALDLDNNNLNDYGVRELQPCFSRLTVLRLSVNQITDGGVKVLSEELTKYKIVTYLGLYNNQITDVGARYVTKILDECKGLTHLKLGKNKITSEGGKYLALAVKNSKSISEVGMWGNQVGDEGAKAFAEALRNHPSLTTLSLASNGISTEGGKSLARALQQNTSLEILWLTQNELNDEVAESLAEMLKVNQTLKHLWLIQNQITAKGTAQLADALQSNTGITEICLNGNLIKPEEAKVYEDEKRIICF

HEK-293T [27] = experiment: Cytotoxicity against HEK293T cells at 20 uM by alamar blue assay; type: cell-based; conditions: human

## Cc1ccc(S(=O)(=O)n2c(N)nc3ccccc32)cc1
[1]
  remaining at 3 h, 1 µM: 100%
[2]
  inhibition: 89%
[3]
  fraction unbound at 4 h, 1 µM: 0.025
MCF7
  inhibition: inactive
[4]
  remaining at 1 h, 1 µM: 41.8%
[5]
  concentration at 20 min: 5500 ng/mL
HEK-293T [6]
  inhibition: inactive
[7]
  remaining at 1 h, 1 µM: 0.8%
[8]
  concentration at 2 h: < 500 ng/mL
[9]
  remaining at 3 h, 1 µM: 100%
[10]
  inhibition: 27%
cells
  IC50: > 20 µM
[11]
  concentration at 20 min: 1200 ng/mL
[12]
  CC50 at 24 h: > 50 µM
[13]
  fraction unbound at 4 h, 10 µM: 0.045
[14]
  inhibition: 6%
[15]
  inhibition: 21%
[16]
  Activity: Non-toxic
[17]
  fraction unbound at 4 h, 10 µM: 0.023
[18]
  concentration at 2 h: < 500 ng/mL
[19]
  inhibition: 23%
[20]
  fraction unbound at 4 h, 1 µM: 0.05
[21]
  inhibition: 92%
HEK-293T [22]
  inhibition: inactive
[23]
  inhibition: inactive
[24]
  inhibition: 69%
[25]
  inhibition: inactive
[26]
  inhibition: Active
HEK-293T [27]
  Activity: 0%
